According to patent US11319347B2, “Peptide compound and method for producing same, composition for screening use, and method for selecting peptide compound” (FUJIFILM Corporation, priority 2017, dated 2022):
pKd: −log10 of the molar value. Like-named read-outs stand apart in the source and are kept apart here. Starred links: 1 amine or outer side, 2 acyl side, 3 side chain; linkers in the order of their positions; H or OH if unused. Positions of bridges follow the written chain, without caps; N, C: chain ends. Non-standard residues stand in square brackets, D forms with d. Residues, ends and D or L forms follow the SMILES beside them. ξ: configuration not given here. 2Pal(6-thiazolin-2-yl-4R-CO) = O=C([C@H](Cc1cccc(C2=N[C@H](C(=O)[*:3])CS2)n1)N[*:1])[*:2]; Ile(3ξ) = CCC(C)[C@H](N)C(=O)O

Target: Mcl-1
Experiment: Binding of synthetic peptide to target protein by surface plasmon resonance (SPR, Biacore T200)
Method: Preparation of Target Protein
A plasmid construct was prepared in which a gene containing the amino acid 1-172 portion of MCL-1 was introduced into plasmid pET28a, and a His6 tag, MBP, and a TEV protease recognition sequence were attached to the N terminal side thereof. This plasmid was transformed into E. coli strain BL21 (DE3) RIPL which was then cultured at 30° C. In a case where the O.D. reached 0.8, IPTG […] was added to induce large-scale expression, followed by culturing at 16° C. overnight. The recovered bacterial cells were suspended in Lysis Buffer A (25 mmol/L Tris (pH 7.5), 150 mmol/L NaCl), and then disrupted by sonication. This was followed by centrifugation at 15 krpm for 15 minutes. The supernatant after centrifugation was purified using a Ni-NTA resin (manufactured by QIAGEN GmbH). The sample adsorbed to the Ni-NTA resin was washed with Lysis Buffer A containing 15 mmol/L imidazole and then eluted with Lysis Buffer A containing 200 mmol/L imidazole. The sample was stored at −80° C. after substitution with Lysis buffer by dialysis.
Evaluation of Binding of Synthetic Peptide to Target Protein Using Surface Plasmon Resonance (SPR)
An SPR experiment for analyzing the interaction of a synthetic peptide with Mel-1 was carried out at 25° C. using Biacore T200 (manufactured by GE Healthcare Inc.). The synthetic peptide was added to the immobilized protein, and the interaction therebetween was evaluated.
A buffer obtained by adding dimethylformamide (DMF) or dimethylsulfoxide (DMSO) to a final concentration of 1 vol % to HBS-EP+ (manufactured by GE Healthcare Inc.) was used as a running buffer. Mcl-1 was immobilized on a Biacore Sensor Chip Series S Sensor Chip CM5 (manufactured by GE Healthcare Inc.) using an Amine Coupling Kit (manufactured by GE Healthcare Inc.). In order to measure the dissociation constant (KD), each synthetic peptide was added at multiple concentrations to obtain a sensorgram of binding to immobilized Mel-1.
The analysis of the obtained sensorgram was carried out using T200 evaluation software (manufactured by GE Healthcare Inc.). Solvent correction to DMF or DMSO was carried out, and then the KD was determined by equilibrium value analysis using a sensorgram obtained by subtracting the sensorgram to a flow cell in which Mcl-1 is not immobilized.
One having a KD of less than 50 μmol/L is denoted as A, and one having a KD of 50 μmol/L or more is denoted as B.
Binding of the synthetic peptide to the target protein was evaluated in the same manner as described above.

[1] = 25° C., immobilized Mcl-1, Table 51, read-out: Binding evaluation result (KD)
[2] = immobilized Mcl-1, Table 53 (peptides from mRNA display), read-out: Binding evaluation result (KD)

pKd [1] | pKd [2] | Compound
≤ 4.30 | – | CC(C)C[C@@H]1NC(=O)[C@H](Cc2ccccc2)NC(=O)[C@H](C)NC(=O)[C@@H]2CCCN2C(=O)[C@H](Cc2c[nH]c3ccccc23)NC(=O)[C@H](CC(C)C)NC(=O)[C@@H](CS)NC(=O)[C@H](C)NC(=O)C(Cc2c[nH]c3ccccc23)NC(=O)[C@H](CO)NC(=O)C(CCCNC(=N)N)NC(=O)[C@@H]2CSC(=N2)c2cccc(n2)C[C@H](C(N)=O)NC(=O)[C@H](Cc2ccc(O)cc2)NC(=O)[C@H](Cc2c[nH]c3ccccc23)NC1=O (stereo partly drawn) [Cyclic peptide a-5-1]
≤ 4.30 | – | CC(C)C[C@@H]1NC(=O)[C@H](C(C)C)NC(=O)[C@H](CO)NC(=O)[C@H](Cc2ccccc2)NC(=O)[C@H](C)NC(=O)[C@H](Cc2c[nH]c3ccccc23)NC(=O)[C@@H]2CSC(=N2)c2cccc(n2)C[C@H](C(N)=O)NC(=O)[C@H](Cc2c[nH]c3ccccc23)NC(=O)[C@H](C(C)C)NC(=O)[C@@H]2CCCN2C(=O)[C@H](Cc2ccccc2)NC(=O)[C@H](Cc2c[nH]c3ccccc23)NC(=O)[C@@H]2CCCN2C(=O)[C@H](Cc2c[nH]c3ccccc23)NC1=O [Cyclic peptide a-5-2]
≤ 4.30 | – | CC(C)C[C@@H]1NC(=O)[C@H](C)NC(=O)[C@@H](Cc2ccccc2)NC(=O)[C@@H]2CSC(=N2)c2cccc(n2)C[C@@H](C(N)=O)NC(=O)[C@H](Cc2ccccc2)NC(=O)[C@H](C)NC(=O)[C@H](CC(C)C)NC(=O)[C@@H]2CCCN2C(=O)[C@@H](CC(C)C)NC(=O)[C@@H](Cc2ccccc2)NC(=O)[C@H](CCC(N)=O)NC(=O)[C@@H]2CCCN2C(=O)[C@@H](Cc2c[nH]c3ccccc23)NC(=O)[C@H](CC(C)C)NC1=O [Cyclic peptide a-5-3] ([dF]ALL[dW]PQ[dF][dL]PLAF[2Pal(6-thiazolin-2-yl-4R-CO)]-NH2; lactam N-14)
> 4.30 | – | CC(C)C[C@@H]1NC(=O)[C@H](C(C)C)NC(=O)[C@H](CO)NC(=O)[C@H](Cc2c[nH]c3ccccc23)NC(=O)[C@@H]2CSC(=N2)c2cccc(n2)C[C@@H](C(N)=O)NC(=O)[C@H](CO)NC(=O)[C@H](C(C)C)NC(=O)[C@H](CO)NC(=O)[C@@H]2CCCN2C(=O)[C@H](C(C)C)NC(=O)[C@H](Cc2ccccc2)NC(=O)[C@H](Cc2c[nH]c3ccccc23)NC(=O)[C@@H]2CCCN2C(=O)[C@H](Cc2c[nH]c3ccccc23)NC1=O [Cyclic peptide a-5-4] (WSVLWPWFVPSVS[2Pal(6-thiazolin-2-yl-4R-CO)]-NH2; lactam N-14)
> 4.30 | – | CC(C)C[C@@H]1NC(=O)CNC(=O)[C@@H]2CCCN2C(=O)[C@H](CCC(=O)O)NC(=O)[C@H](Cc2ccccc2)NC(=O)[C@H](CO)NC(=O)[C@@H]2CSC(=N2)c2cccc(n2)C[C@@H](C(N)=O)NC(=O)[C@H](CC(C)C)NC(=O)[C@H](C(C)C)NC(=O)[C@H](CCCNC(=N)N)NC(=O)[C@H](Cc2ccccc2)NC(=O)[C@H](CC(C)C)NC(=O)[C@H](Cc2c[nH]c3ccccc23)NC(=O)[C@H](Cc2c[nH]c3ccccc23)NC1=O [Cyclic peptide a-5-5] (SFEPGLWWLFRVL[2Pal(6-thiazolin-2-yl-4R-CO)]-NH2; lactam N-14)
≤ 4.30 | – | CC(C)C[C@@H]1NC(=O)[C@H](Cc2c[nH]c3ccccc23)NC(=O)[C@@H]2CCCN2C(=O)[C@H](Cc2c[nH]c3ccccc23)NC(=O)[C@H](CC(C)C)NC(=O)[C@H](C(C)C)NC(=O)[C@H](CS)NC(=O)[C@H](Cc2c[nH]c3ccccc23)NC(=O)[C@H](CO)NC(=O)[C@@H]2CSC(=N2)c2cccc(n2)C[C@@H](C(N)=O)NC(=O)CNC(=O)[C@H](Cc2c[nH]c3ccccc23)NC(=O)[C@H](Cc2ccccc2)NC(=O)[C@H](C(C)C)NC1=O [Cyclic peptide a-5-6] (SWCVLWPWLVFWG[2Pal(6-thiazolin-2-yl-4R-CO)]-NH2; lactam N-14)
≤ 4.30 | – | CCC(C)[C@@H]1NC(=O)[C@@H]2CCCN2C(=O)[C@H](Cc2c[nH]c3ccccc23)NC(=O)[C@H](CC(C)C)NC(=O)[C@H](CC(C)C)NC(=O)[C@H](C(C)C)NC(=O)[C@H](Cc2c[nH]c3ccccc23)NC(=O)[C@@H]2CCCN2C(=O)[C@@H]2CSC(=N2)c2cccc(n2)C[C@@H](C(N)=O)NC(=O)[C@H](CC(C)C)NC(=O)[C@H](CO)NC(=O)[C@@H]2CCCN2C(=O)[C@H](C(C)C)NC(=O)[C@H](CC(C)C)NC1=O (stereo partly drawn) [Cyclic peptide a-5-7] (PWVLLWP[Ile(3ξ)]LVPSL[2Pal(6-thiazolin-2-yl-4R-CO)]-NH2; lactam N-14)
≤ 4.30 | – | CC(C)C[C@@H]1NC(=O)[C@H](C)NC(=O)[C@H](Cc2ccccc2)NC(=O)[C@H](C)NC(=O)[C@@H]2CCCN2C(=O)[C@H](Cc2c[nH]c3ccccc23)NC(=O)[C@H](CC(C)C)NC(=O)[C@H](CS)NC(=O)[C@H](C)NC(=O)[C@H](Cc2c[nH]c3ccccc23)NC(=O)[C@@H]2CSC(=N2)c2cccc(n2)C[C@@H](C(N)=O)NC(=O)[C@H](CC(C)C)NC(=O)[C@H](Cc2c[nH]c3ccccc23)NC(=O)[C@H](CO)NC1=O [Cyclic peptide a-5-8] (WACLWPAFALSWL[2Pal(6-thiazolin-2-yl-4R-CO)]-NH2; lactam N-14)
– | > 4.30 | CC(C)C[C@@H]1NC(=O)[C@@H]2CCCN2C(=O)[C@H](Cc2c[nH]c3ccccc23)NC(=O)[C@H](Cc2ccccc2)NC(=O)[C@H]([C@H](C)O)NC(=O)[C@@H]2CCCN2C(=O)[C@H](CC(=O)O)NC(=O)[C@H](CS)NC(=O)[C@H](Cc2ccc(O)cc2)NC(=O)[C@H](CCC(=O)O)NC(=O)[C@@H]2CSC(=N2)c2cc(cs2)C[C@@H](C(N)=O)NC(=O)[C@H](CCCNC(=N)N)NC(=O)[C@H](CCCNC(=N)N)NC(=O)[C@H](Cc2ccccc2)NC1=O [a-6-1]
– | ≤ 4.30 | CC(C)C[C@@H]1NC(=O)[C@H](CC(=O)O)NC(=O)[C@H](CCC(N)=O)NC(=O)[C@H](CC(=O)O)NC(=O)[C@H](CCCCN)NC(=O)[C@H](Cc2ccc(O)cc2)NC(=O)[C@H](CC(=O)O)NC(=O)[C@H](Cc2ccc(O)cc2)NC(=O)[C@H](CCC(=O)O)NC(=O)[C@H](Cc2ccccc2)NC(=O)[C@H](C)NC(=O)CNC(=O)[C@H](C)NC(=O)[C@@H]2CSC(=N2)c2cc(cs2)C[C@H](C(N)=O)NC1=O [a-6-2]
– | ≤ 4.30 | CC[C@H](C)[C@@H]1NC(=O)[C@H](CC(=O)O)NC(=O)[C@@H]2CSC(=N2)c2cc(cs2)CC(C(N)=O)NC(=O)[C@H](CCCNC(=N)N)NC(=O)[C@H](CC(=O)O)NC(=O)CNC(=O)[C@H](CC(=O)O)NC(=O)[C@H](CCCCN)NC(=O)[C@H](Cc2ccc(O)cc2)NC(=O)[C@H](CC(=O)O)NC(=O)[C@H](Cc2ccc(O)cc2)NC(=O)[C@H](C(C)C)NC(=O)CNC(=O)[C@H](C(C)C)NC1=O (stereo partly drawn) [a-6-3]
– | > 4.30 | CC[C@H](C)[C@@H]1NC(=O)[C@H](CO)NC(=O)[C@H](CCCNC(=N)N)NC(=O)[C@H](CC(C)C)NC(=O)[C@H]([C@@H](C)O)NC(=O)[C@H](CO)NC(=O)[C@H](C)NC(=O)[C@H]([C@@H](C)O)NC(=O)[C@H](CCC(=O)O)NC(=O)[C@H](CCC(=O)O)NC(=O)[C@@H]2CSC(=N2)c2cc(cs2)C[C@@H](C(N)=O)NC(=O)[C@H](CO)NC(=O)[C@H](CC(=O)O)NC(=O)CNC1=O [a-6-4]
– | > 4.30 | CC[C@H](C)[C@@H]1NC(=O)[C@H](CO)NC(=O)[C@H](CO)NC(=O)[C@H](CC(C)C)NC(=O)[C@H]([C@@H](C)O)NC(=O)[C@H]([C@@H](C)O)NC(=O)[C@@H]2CSC(=N2)c2cc(cs2)C[C@@H](C(N)=O)NC(=O)[C@H](CCCNC(=N)N)NC(=O)[C@H](CCCNC(=N)N)NC(=O)[C@H](CC(=O)O)NC(=O)[C@H](C(C)C)NC(=O)[C@H](CCC(N)=O)NC(=O)[C@H](CC(=O)O)NC(=O)CNC1=O [a-6-5]
– | > 4.30 | CC[C@H](C)[C@@H]1NC(=O)[C@H](CCC(N)=O)NC(=O)[C@H](CCCNC(=N)N)NC(=O)[C@H](CC(C)C)NC(=O)CNC(=O)[C@H](CC(=O)O)NC(=O)[C@H](C(C)C)NC(=O)[C@H](C(C)C)NC(=O)[C@H](CC(N)=O)NC(=O)[C@@H]2CCCN2C(=O)[C@@H]2CSC(=N2)c2cc(cs2)CC(C(N)=O)NC(=O)[C@H]([C@@H](C)O)NC(=O)[C@H](CC(=O)O)NC(=O)CNC1=O (stereo partly drawn) [a-6-6]
– | > 4.30 | CC(C)C[C@H](NC(=O)[C@H](CC(=O)O)NC(=O)[C@H](CCCCN)NC(=O)[C@@H](NC(=O)[C@H](C)NC(=O)[C@H](C)NC(=O)[C@H]1Cc2csc(c2)C2=N[C@@H](CS2)C(=O)N[C@@H](CC(=O)O)C(=O)N[C@@H](CO)C(=O)N[C@@H](Cc2ccc(O)cc2)C(=O)N1)C(C)C)C(=O)N[C@@H](CCC(=O)O)C(=O)N[C@@H](CC(N)=O)C(=O)N[C@@H](C)C(=O)N[C@@H](Cc1csc(C#N)c1)C(N)=O [a-6-7]
